Patent US20260014147A1, “STAT6 DEGRADERS” (Gilead Sciences, Inc., priority 2024, published 2026)

target: T1, STAT6 (endogenous, HiBiT-tagged) in HeLa LgBiT clone 4.14 cells (Homo sapiens, UniProt P42226); assay: STAT6 Degrader Assay (HiBiT based, HeLa LgBiT clone 4.14 cells, luminescence, DC50); format: cell-based; conditions: DC50 provided for test compounds with >80% Emax, geometric mean, read-out: STAT6 degradation DC50
T1 construct: These cells express endogenous STAT6; host or cells: HeLa LgBiT clone 4.14
T1 sequence (P42226 1-847): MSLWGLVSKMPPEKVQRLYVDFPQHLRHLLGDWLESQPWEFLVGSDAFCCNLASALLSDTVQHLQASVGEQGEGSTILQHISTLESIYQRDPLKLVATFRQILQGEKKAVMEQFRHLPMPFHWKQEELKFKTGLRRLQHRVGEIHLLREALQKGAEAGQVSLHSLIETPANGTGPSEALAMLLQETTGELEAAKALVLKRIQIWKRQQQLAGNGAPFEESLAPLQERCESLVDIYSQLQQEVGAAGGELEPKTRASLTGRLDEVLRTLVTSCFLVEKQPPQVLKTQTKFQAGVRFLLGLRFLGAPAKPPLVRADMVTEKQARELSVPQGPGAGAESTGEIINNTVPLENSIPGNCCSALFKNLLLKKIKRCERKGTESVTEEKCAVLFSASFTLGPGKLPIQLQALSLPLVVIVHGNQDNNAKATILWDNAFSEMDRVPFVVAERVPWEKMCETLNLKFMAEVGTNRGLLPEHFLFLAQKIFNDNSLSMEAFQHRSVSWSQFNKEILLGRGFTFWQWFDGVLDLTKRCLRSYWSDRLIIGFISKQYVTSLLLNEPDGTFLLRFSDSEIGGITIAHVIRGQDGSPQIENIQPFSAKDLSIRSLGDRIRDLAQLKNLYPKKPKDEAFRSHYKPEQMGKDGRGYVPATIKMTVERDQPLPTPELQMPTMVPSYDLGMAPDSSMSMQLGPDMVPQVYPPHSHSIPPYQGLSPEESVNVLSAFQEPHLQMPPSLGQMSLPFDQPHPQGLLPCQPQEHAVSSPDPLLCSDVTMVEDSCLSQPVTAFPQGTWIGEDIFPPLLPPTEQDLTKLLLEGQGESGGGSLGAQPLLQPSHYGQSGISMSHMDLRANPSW
Description: This was a HiBit based assay. A HeLa cell line stably transfected with a small protein, LgBit (Large Bit) was obtained from Promega. These cells express endogenous STAT6. A small 11 amino acid gene sequence (HiBiT) was inserted in the STAT6 gene using CRISPR technology. Once STAT6 protein is expressed in the cells, the HiBiT sequence will bind the LgBit in the cells resulting in a functional NanoBiT protein, giving a luminescent tag to STAT6. Single cell clones were prepared and the clone 4.14 was selected for the assay based on that clone showing high luminescence, high STAT6 phosphorylation upon stimulation with IL-4, and inhibition of luminescence when cells were treated with STAT6 siRNA. HeLa LgBiT clone 4.14 cells were suspended in DMEM with 10% FCS, 1% Pen/Strep, Na-pyrovate and Hygromycin B, at a concentration of […]. 5000 cells were added pr well of a 384 well plate and 20 nL of compound was added by Echo® liquid handler. NN6394A (terfenadine, a toxic compound) was added to control wells at 50 µM concentration to establish the assay window. In these wells the cells are dead which equals 100% degradation of STAT6. After 4-24 h of incubation at 37° C. under 5% CO2/95% air, […] substrate (Nano-GLO®) was added to the wells and the plates were centrifuged and incubated for 0.5 h. The luminescence in the wells as a measure of non-degraded STAT6 was measured in a plate reader (BMG Pherastar FSX). The dose-response curves for Examples 2a2, 2t1, 2 h3, and 2r1 are shown below (where percent degradation is plotted vs. test compound concentration in M on a log-scale).

Row | SMILES | DC50
1 | C[C@@H](c1cc2c(-c3ccc(N)nc3)ccnc2n1C)N1CCC(c2ccc(C(=O)N3CCN(CC4CCN(c5ccc(NC6CCC(=O)NC6=O)cc5F)CC4)CC3)cc2)CC1 (stereo partly drawn) [Example 2g63, 3-((4-(4-((4-(4-(1-((S)-1-(4-(6-aminopyridin-3-yl)-1-methyl-1H-pyrrolo[2,3-b]pyridin-2-yl)ethyl)piperidin-4-yl)benzoyl)piperazin-1-yl)methyl)piperidin-1-yl)-3-fluorophenyl)amino)piperidine-2,6-dione] | 0.0483 µM
2 | Cn1c(CN2CCC(c3ccc(C(=O)N4CCC(CN5CCC(N6CCC(c7ccc(NC8CCC(=O)NC8=O)cc7F)CC6)C(F)(F)C5)CC4)cc3)CC2)cc2c(-c3ccc4[nH]ncc4c3)ccnc21 (centres unmarked) [Example 2h1, 3-((4-(1′-((1-(4-(1-((4-(1H-indazol-5-yl)-1-methyl-1H-pyrrolo[2,3-b]pyridin-2-yl)methyl)-piperidin-4-yl)benzoyl)piperidin-4-yl)methyl)-3′, 3′-difluoro-[1,4′-bipiperidin]-4-yl)-3-fluorophenyl)-amino)piperidine-2,6-dione] | 0.0663 µM
3 | Cn1c(CN2CCC(c3ccc(C(=O)N4CCC(CN5CCC(N6CCC(c7ccc(NC8CCC(=O)NC8=O)cc7F)CC6)C(F)(F)C5)CC4)cc3)CC2)cc2c(-c3ccc(N)nc3)ccnc21 (centres unmarked) [Example 2h2, 3-((4-(1′-((1-(4-(1-((4-(6-aminopyridin-3-yl)-1-methyl-1H-pyrrolo[2,3-b]pyridin-2-yl)-methyl)piperidin-4-yl)benzoyl)piperidin-4-yl)methyl)-3′, 3′-difluoro-[1,4′-bipiperidin]-4-yl)-3-fluoro-phenyl)amino)piperidine-2,6-dione] | 0.133 µM
4 | COCc1nc2cc(-c3ccnc4c3cc(CN3CCC(c5ccc(C(=O)N6CCC(CN7CCC(N8CCC(c9ccc(NC%10CCC(=O)NC%10=O)cc9F)CC8)C(F)(F)C7)CC6)cc5)CC3)n4C)ccc2[nH]1 (centres unmarked) [Example 2h3, 3-((4-(3′, 3′-difluoro-1′-((1-(4-(1-((4-(2-(methoxymethyl)-1H-benzo[d]imidazol-5-yl)-1-methyl-1H-pyrrolo[2,3-b]pyridin-2-yl)methyl)piperidin-4-yl)benzoyl)piperidin-4-yl)methyl)-[1,4′-bipiperidin]-4-yl)-3-fluorophenyl)amino)piperidine-2,6-dione] | 0.0548 µM
5 | COCc1nc2cc(-c3ccnc4c3cc([C@H](C)N3CCC(c5ccc(C(=O)N6CCC(CN7CCN(c8ccc(NC9CCC(=O)NC9=O)cc8Cl)CC7)CC6)cc5)CC3)n4C)ccc2[nH]1 (stereo partly drawn) [Example 2i4, 3-((3-chloro-4-(4-((1-(4-(1-((S)-1-(4-(2-(methoxymethyl)-1H-benzo[d]imidazol-5-yl)-1-methyl-1H-pyrrolo[2,3-b]pyridin-2-yl)ethyl)piperidin-4-yl)benzoyl)piperidin-4-yl)methyl)piperazin-1-yl)phenyl)amino)piperidine-2,6-dione] | 0.0076 µM

Now from value to compound:

Row | DC50 | SMILES
6 | 0.0388 µM | C[C@@H]1CN(c2ccc(NC3CCC(=O)NC3=O)cc2F)CCN1CC1CCN(C(=O)c2ccc(C3CCN(Cc4cc5c(-c6ccc(N)nc6)ccnc5n4C)CC3)cc2)CC1 (stereo partly drawn) [Example 2f6, 3-((4-((R)-4-((1-(4-(1-((4-(6-aminopyridin-3-yl)-1-methyl-1H-pyrrolo[2,3-b]pyridin-2-yl)-methyl)-piperidin-4-yl)benzoyl)piperidin-4-yl)methyl)-3-methylpiperazin-1-yl)-3-fluorophenyl)amino)-piperidine-2,6-dione]
7 | 0.0066 µM | COCc1nc2cc(-c3ccnc4c3cc(CN3CCC(c5ccc(C(=O)N6CCC(CN7CCN(c8ccc(NC9CCC(=O)NC9=O)cc8F)C[C@H]7C)CC6)cc5)CC3)n4C)ccc2[nH]1 (stereo partly drawn) [Example 2f7, 3-((3-fluoro-4-((R)-4-((1-(4-(1-((4-(2-(methoxymethyl)-1H-benzo[d]imidazol-5-yl)-1-methyl-1H-pyrrolo[2,3-b]pyridin-2-yl)methyl)piperidin-4-yl)benzoyl)piperidin-4-yl)methyl)-3-methylpiperazin-1-yl)phenyl)-amino)piperidine-2,6-dione]
8 | 0.0191 µM | C[C@@H]1CN(c2ccc(NC3CCC(=O)NC3=O)cc2F)CCN1CC1CCN(C(=O)c2ccc(C3CCN(Cc4cc5c(-c6ccc7[nH]ncc7c6)ccnc5n4C)CC3)cc2)CC1 (stereo partly drawn) [Example 2f8, 3-((4-((R)-4-((1-(4-(1-((4-(1H-indazol-5-yl)-1-methyl-1H-pyrrolo[2,3-b]pyridin-2-yl)methyl)-piperidin-4-yl)benzoyl)piperidin-4-yl)methyl)-3-methylpiperazin-1-yl)-3-fluorophenyl)amino)piperidine-2,6-dione]

same assay, conditions: Emax provided for test compounds with <80% Emax (and 2c15), geometric mean, read-out: STAT6 degradation Emax

Row | SMILES | Emax
9 | Cn1c(CN2CCC(c3ccc(C(=O)N4CCC(CN5CCC(n6ncc7c(NC8CCC(=O)NC8=O)cccc76)CC5)CC4)cc3)CC2)cc2c(-c3ccc4[nH]ncc4c3)ccnc21 (centres unmarked) [Example 2g1, 3-((1-(1-((1-(4-(1-((4-(1H-indazol-5-yl)-1-methyl-1H-pyrrolo[2,3-b]pyridin-2-yl)methyl)-piperidin-4-yl)benzoyl)piperidin-4-yl)methyl)piperidin-4-yl)-1H-indazol-4-yl)amino)piperidine-2,6-dione] | < 20%
10 | COc1cc(N2CCN(CC3CCN(C(=O)c4ccc(C5CCN(Cc6cc7c(-c8ccc9[nH]ncc9c8)ccnc7n6C)CC5)cc4)CC3)CC2)c(F)cc1NC1CCC(=O)NC1=O (centres unmarked) [Example 2i1, 3-((4-(4-((1-(4-(1-((4-(1H-indazol-5-yl)-1-methyl-1H-pyrrolo[2,3-b]pyridin-2-yl)methyl)-piperidin-4-yl)benzoyl)piperidin-4-yl)methyl)piperazin-1-yl)-5-fluoro-2-methoxyphenyl)amino)-piperidine-2,6-dione] | 40 to 50%
11 | COCc1nc2cc(-c3ccnc4c3cc([C@H](C)N3CCC(c5ccc(C(=O)N6CCC(CN7CCN(c8ccc(NC9CCC(=O)NC9=O)cc8C#N)CC7)CC6)cc5)CC3)n4C)ccc2[nH]1 (stereo partly drawn) [Example 2i2, 5-((2,6-dioxopiperidin-3-yl)amino)-2-(4-((1-(4-(1-((S)-1-(4-(2-(methoxymethyl)-1H-benzo[d]-imidazol-5-yl)-1-methyl-1H-pyrrolo[2,3-b]pyridin-2-yl)ethyl)piperidin-4-yl)benzoyl)piperidin-4-yl)methyl)-piperazin-1-yl)benzonitrile] | 30 to 40%
12 | C[C@@H](c1cc2c(-c3ccc(N)nc3)ccnc2n1C)N1CCC(c2ccc(C(=O)N3CCC(CN4CCN(c5ccc(NC6CCC(=O)NC6=O)cc5C#N)CC4)CC3)cc2)CC1 (stereo partly drawn) [Example 2i3, 2-(4-((1-(4-(1-((S)-1-(4-(6-aminopyridin-3-yl)-1-methyl-1H-pyrrolo[2,3-b]pyridin-2-yl)-ethyl)-piperidin-4-yl)benzoyl)piperidin-4-yl)methyl)piperazin-1-yl)-5-((2,6-dioxopiperidin-3-yl)amino)-benzonitrile] | 30 to 40%

Other lines, results leading:

Row | Emax | SMILES
13 | 50 to 60% | COCc1nc2cc(-c3ccnc4c3cc(CN3CCC(c5ccc(C(=O)N6CCC(CN7CCN(c8ccc(NC9CCC(=O)NC9=O)cc8F)C[C@@H]7C)CC6)cc5)CC3)n4C)ccc2[nH]1 (stereo partly drawn) [Example 2f4, 3-((3-fluoro-4-((S)-4-((1-(4-(1-((4-(2-(methoxymethyl)-1H-benzo[d]imidazol-5-yl)-1-methyl-1H-pyrrolo[2,3-b]pyridin-2-yl)methyl)piperidin-4-yl)benzoyl)piperidin-4-yl)methyl)-3-methylpiperazin-1-yl)phenyl)-amino)piperidine-2,6-dione]
14 | 50 to 60% | C[C@H]1CN(c2ccc(NC3CCC(=O)NC3=O)cc2F)CCN1CC1CCN(C(=O)c2ccc(C3CCN(Cc4cc5c(-c6ccc7[nH]ncc7c6)ccnc5n4C)CC3)cc2)CC1 (stereo partly drawn) [Example 2f5, 3-((4-((S)-4-((1-(4-(1-((4-(1H-indazol-5-yl)-1-methyl-1H-pyrrolo[2,3-b]pyridin-2-yl)methyl)piperidin-4-yl)benzoyl)piperidin-4-yl)methyl)-3-methylpiperazin-1-yl)-3-fluorophenyl)amino)piperidine-2,6-dione]
